Measured values reported in patent US12116592B2, “Methods and compositions for ex vivo expansion of very small embryonic-like stem cells (VSELs)” (University of Louisville Research Foundation, Inc., priority 2016, dated 2024).

How the values were obtained:
[1] = system: Sca-1^+/lin^−/CD45^− murine bone marrow VSELs; test: Ex vivo expansion of murine VSELs; assay type: cell-based; conditions: 1 mM VPA with 10 U/ml LH and 10 U/ml FSH in D-MEM, 5% FBS; feeder-free; at 2 months
Description: Murine VSELs were isolated by multi-parameter sorting using a MOFLOW™ XDP sorter (Beckman Coulter, Inc., Indianapolis, Indiana, United States of America). Highly purified Sca-1^+/lin^−/CD45^− murine bone marrow VSELs were cultured in D-MEM culture medium containing 5% fetal bovine serum (FBS) supplemented with 10 U/ml luteinizing hormone (LH) and 10 U/ml follicle-stimulating hormone (FSH) in a humidified incubator maintained at 37° C. with 5% CO2. VSELs were exposed to the HDAC inhibitor valproic acid (VPA; Sigma Aldrich, St. Louis, Missouri, United States of America) at a concentration of 1 mM. The cultures were supplemented with fresh LH and FSH every third day. The cultures were maintained for approximately two (2) months.

[2] = system: Human UCB-derived VSELs (CD133^+/lin^−/CD45^− cells); test: Ex vivo expansion of human UCB-derived VSELs; assay type: cell-based; conditions: VPA (1 mM), LH (10 U/ml), FSH (10 U/ml), TGFβ (10 ng/ml) in D-MEM, 10% FBS; at 2 months
Description: Human UCB-derived VSELs were isolated by multi-parameter sorting using a MOFLOW™ XDP sorter (Beckman Coulter, Inc.). Small CD133^+/lin^−/CD45^− cells were plated in 96 well plates in D-MEM medium supplemented with 10% FBS in the presence of VPA (1 mM), LH (10 U/ml), FSH (10 U/ml) and transforming growth factor beta (TGFβ; 10 ng/ml). Cells were cultured for two (2) months in a humidified incubator at 37° C., 5% CO2. Fresh medium was added every 7 days.

With CCCC(CCC)C(=O)O [VPA, valproic acid] the “average expansion of sorted purified murine VSELs as compared to day 0” value [1] was 21±3 fold and the “average expansion of sorted purified human VSELs as compared to day 0” value [2] was 32±5 fold.
